Results published in patent US20110082074A1, “AGENT FOR PREVENTING PERIODONTAL DISEASE” (priority 2009, published 2011).
“Also recorded” adds a separate entry of the source.

Legend:
[1] = system: binding between gingival cells and FimA II; assay: Effect of monosaccharide on binding inhibitory effect: labeled test cells bound to immobilized FimA II-His; assay type: cell-based, Porphyromonas gingivalis; conditions: monosaccharide final concentration 50 μg/ml with 10 μl RGD peptide−SBA beads; FIG. 6
Description: FimA II-His (10 μg/ml) was immobilized onto a 96-well plate, and test cells that had been fluorescently labeled with CellTracker Green CMFDA (Invitrogen) were bound thereto in an amount of 1×10^6 cells.
SBA beads, RGD peptide, or RGD peptide−SBA beads were allowed to coexist in the wells in an amount of 10 μl, and the plate was shaken. In addition to the RGD peptide−SBA beads, glucose or N-acetylgalactosamine (GalNAc) was allowed to coexist therewith in a final concentration of 50 μg/ml. For comparison, wells of a 96-well plate in which no beads were present and only N-acetylgalactosamine was present in a final concentration of 50 μg/ml were also prepared.
(§1) The 96-well plate was filled with PBS. After unbound cells were removed, bound cells were detected using a fluorescent plate reader.

[2] = system: P. gingivalis carrying type II FimA fimbrial protein; assay: Binding Inhibitory Experiment 3: fluorescently labeled P. gingivalis bound to seeded test cells; assay type: cell-based, Porphyromonas gingivalis; conditions: 30 μl beads, 10 μl P. gingivalis, room temperature 10 minutes; FIG. 4
Description: Test cells were seeded into a 96-well plate in an amount of 5×10^5 cells. The next day, 10 μl of P. gingivalis carrying FimA type II fimbrial protein was allowed to bind, and 30 μl each of SBA beads, RGD peptide−SBA beads, and fibronectin−SBA beads were added. The plate was shaken at room temperature for 10 minutes.
The 96-well plate was gently washed. Fluorescently labeled P. gingivalis carrying type II FimA fimbrial protein bound to the cells was detected using a fluorescence detector. P. gingivalis was fluorescently labeled by using an FITC Labeling Kit (manufactured by Kirkegaard & Perry Laboratories, Inc.) after P. gingivalis was immobilized with formalin.

TGF-β = assay: Confirmation of cytokine production: TGF-β produced by Ca9-22 cells; assay type: cell-based; conditions: 30 μl beads, FIG. 7
Description: Ca9-22 cells were seeded into a 96-well plate in an amount of 5×10^5 cells. The next day, (1) a lipopolysaccharide (hereinafter also referred to as “LPS”; 10 ng/ml), (2) TNF-α(10 ng/ml), (3) P. gingivalis carrying FimA type II fimbrial protein (5 μl), or (4) FimA II-GST (10 μg/ml) was added as a reagent. The parenthesized numerals in the above sentence indicate the final concentrations in the media containing the reagents to 50 μl of the medium.
SBA beads, RGD peptide−SBA beads, or fibronectin−SBA beads were allowed to coexist therewith in an amount of 30 μl, and the plate was rocked. The amount of TGF-β produced was then measured.

[3] = system: interaction between gingival cells and FimA II; assay: Comparison with other lectins: labeled test cells bound to immobilized FimA II-His; assay type: cell-based, Porphyromonas gingivalis; conditions: 10 μL beads; SBA compared to WGA (wheat germ lectin); FIG. 5
Description: FimA II-His (10 μg/ml) was immobilized onto a 96-well plate, and test cells that had been fluorescently labeled with CellTracker Green CMFDA (manufactured by Invitrogen) were bound in an amount of 1×10^6 cells.
Subsequently, 10 μL of SBA beads, RGD peptides, RGD peptide−SBA beads, WGA beads, or RGD peptide-WGA beads were allowed to coexist, and the plate was shaken.
The WGA beads are beads prepared in the same manner as in the production of SBA beads described above in Item 1, except for using WGA in place of SBA. The RGD peptide-WGA beads are beads prepared in the same manner as in the production of RGD peptide−SBA beads described above in Item 2, except for using WGA in place of SBA.
as §1

[4] = biological target: T1, binding of FimA type II fimbrial protein to α5β1 integrin expression cells (Homo sapiens, UniProt P05556+P08648); assay: Binding Inhibitory Experiment 1: FimA II-His bound to seeded test cells, detected by ELISA; assay type: cell-based, Porphyromonas gingivalis; conditions: cells immobilized; 10 μl beads; about 30 μM RGD peptide or fibronectin, about 100 μM SBA; compared to fibronectin or RGD peptide alone; FIG. 2
T1 construct: expressed in transfected cells; host or cells: CHO (CHO-VLA5)
T1 sequence (P08648 42-894 limits assumed): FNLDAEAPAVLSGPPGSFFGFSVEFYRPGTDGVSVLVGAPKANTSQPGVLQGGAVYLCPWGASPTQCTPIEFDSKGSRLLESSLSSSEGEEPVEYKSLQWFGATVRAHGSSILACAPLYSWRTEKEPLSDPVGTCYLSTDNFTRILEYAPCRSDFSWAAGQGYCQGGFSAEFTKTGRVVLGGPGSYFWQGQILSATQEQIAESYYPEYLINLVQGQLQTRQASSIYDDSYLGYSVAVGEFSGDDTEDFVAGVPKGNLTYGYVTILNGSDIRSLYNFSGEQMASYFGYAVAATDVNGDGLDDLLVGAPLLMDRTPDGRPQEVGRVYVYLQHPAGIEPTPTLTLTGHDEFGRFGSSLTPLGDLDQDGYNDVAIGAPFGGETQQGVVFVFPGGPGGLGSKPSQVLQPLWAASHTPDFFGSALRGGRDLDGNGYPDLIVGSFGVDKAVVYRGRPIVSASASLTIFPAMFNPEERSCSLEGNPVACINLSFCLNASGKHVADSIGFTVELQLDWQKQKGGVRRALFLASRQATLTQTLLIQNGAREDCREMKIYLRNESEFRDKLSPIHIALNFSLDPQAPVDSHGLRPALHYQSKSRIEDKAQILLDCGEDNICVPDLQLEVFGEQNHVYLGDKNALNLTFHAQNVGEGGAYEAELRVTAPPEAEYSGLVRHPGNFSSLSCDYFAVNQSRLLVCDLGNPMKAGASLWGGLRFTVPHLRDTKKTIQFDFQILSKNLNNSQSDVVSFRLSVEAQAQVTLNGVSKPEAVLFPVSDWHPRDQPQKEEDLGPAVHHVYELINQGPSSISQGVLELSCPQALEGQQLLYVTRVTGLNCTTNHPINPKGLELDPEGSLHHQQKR
T1 sequence (P08648 895-1049 limits assumed): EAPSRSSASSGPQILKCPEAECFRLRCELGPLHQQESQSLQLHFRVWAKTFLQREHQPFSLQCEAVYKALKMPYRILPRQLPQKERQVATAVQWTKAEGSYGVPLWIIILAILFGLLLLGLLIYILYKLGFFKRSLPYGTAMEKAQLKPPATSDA
T1 sequence (P05556 21-798): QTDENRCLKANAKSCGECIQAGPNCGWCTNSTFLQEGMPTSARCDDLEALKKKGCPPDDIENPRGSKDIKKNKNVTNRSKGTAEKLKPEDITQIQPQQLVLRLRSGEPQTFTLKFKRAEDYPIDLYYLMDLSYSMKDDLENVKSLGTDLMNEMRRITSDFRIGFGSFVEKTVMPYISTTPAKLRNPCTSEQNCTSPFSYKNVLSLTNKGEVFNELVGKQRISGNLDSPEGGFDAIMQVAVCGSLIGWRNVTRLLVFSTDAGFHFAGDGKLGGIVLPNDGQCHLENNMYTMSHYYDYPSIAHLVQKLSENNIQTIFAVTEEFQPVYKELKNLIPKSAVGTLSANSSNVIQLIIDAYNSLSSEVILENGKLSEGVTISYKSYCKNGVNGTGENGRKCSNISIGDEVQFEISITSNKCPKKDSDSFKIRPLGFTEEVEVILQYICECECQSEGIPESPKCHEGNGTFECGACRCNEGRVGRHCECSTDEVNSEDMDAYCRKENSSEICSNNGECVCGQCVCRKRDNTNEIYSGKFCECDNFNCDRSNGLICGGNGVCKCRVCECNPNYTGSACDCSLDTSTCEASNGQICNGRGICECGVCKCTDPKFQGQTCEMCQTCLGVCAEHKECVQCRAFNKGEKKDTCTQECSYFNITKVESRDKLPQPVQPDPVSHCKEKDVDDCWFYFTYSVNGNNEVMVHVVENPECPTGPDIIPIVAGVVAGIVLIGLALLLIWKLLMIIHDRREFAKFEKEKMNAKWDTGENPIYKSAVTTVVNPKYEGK
Description: (§2) CHO cells on which α5β1 integrin was forcedly expressed by introducing a gene encoding α5β1 integrin (hereinafter sometimes referred to as “CHO-VLA5”), and gingival cells were used in the Binding Inhibitory Experiments described below. As the gingival cells, three types of cells, GE1, Ca9-22 and Sa3, were used. As a control, CHO cells into which α5β1 integrin was not introduced were used. GE1, Ca9-22, and Sa3 were obtained from ATCC (American Type Culture Collection).
Test cells were seeded into a 96-well plate in an amount of 5×10^5 cells. Subsequently, 50 μl of FimA II-His (10 μg/ml) was allowed to bind to the cells, and 10 μl of SBA beads, RGD peptide−SBA beads, or fibronectin−SBA beads were allowed to coexist. The plate was shaken at room temperature for 10 minutes. For comparison, an experiment in which an RGD peptide or fibronectin was allowed to coexist was performed in a similar manner. […]
After the 96-well plate was gently washed, FimA II-His bound to the cells was detected by ELISA using an anti-His tag antibody (Cat. No. 71554-3; available from Novagen).
The fibronectin−SBA bead solution contained about 30 μM of fibronectin and about 100 μM of SBA, whereas the solution containing only fibronectin contained about 30 μM of fibronectin. These values were calculated by measuring the amount of each protein not bound to the beads during the production. […]

[5] = biological target: T2, binding of type II FimA protein to α5β1 integrin expression cells (Homo sapiens, UniProt P05556+P08648); assay: Binding Inhibitory Experiment 2: fluorescently labeled test cells bound to immobilized FimA II-His; assay type: cell-based, Porphyromonas gingivalis; conditions: 50 μl beads, compared to fibronectin or RGD peptide alone, FIG. 3
T2 construct: expressed in transfected cells; host or cells: CHO (CHO-VLA5)
T2 sequence (P08648 42-894 limits assumed): as the sequence (P08648 42-894 limits assumed) above
T2 sequence (P08648 895-1049 limits assumed): as the sequence (P08648 895-1049 limits assumed) above
T2 sequence (P05556 21-798): as the sequence (P05556 21-798) above
Description: as §2
FimA II-His (10 μg/(ml)) was immobilized onto a 96-well plate, and test cells that had been fluorescently labeled with CellTracker Green CMFDA (available from Invitrogen) were added in an amount of 1×10^6 cells and allowed to bind.
50 μl of SBA beads, RGD peptide−SBA beads, or fibronectin−SBA beads were allowed to coexist in each well, and the plate was shaken. For comparison, an experiment in which an RGD peptide or fibronectin was allowed to coexist was performed in a similar manner.
Each well of the 96-well plates was filled with serum-free Dulbecco's modified Eagle's medium (hereinafter referred to as DMEM) or with PBS, and covered with a Parafilm to prevent air from entering. The plate was turned upside-down and allowed to stand for 5 minutes. After removing the Parafilm, a supernatant containing unbound cells was removed, and bound cells were detected using a fluorescent plate reader.

[6] = biological target: T3, α5β1 integrin expressing cells (Homo sapiens, UniProt P05556+P08648); assay: Binding ratio of RGD peptide or fibronectin to SBA beads, FimA II-His binding inhibitory experiment; assay type: cell-based; conditions: RGD peptide bound in an amount of 10 to 30 μg per 100 μg of SBA beads
T3 construct: expressed in transfected cells; host or cells: CHO (CHO-VLA5)
T3 sequence (P08648 42-894 limits assumed): as the sequence (P08648 42-894 limits assumed) above
T3 sequence (P08648 895-1049 limits assumed): as the sequence (P08648 895-1049 limits assumed) above
T3 sequence (P05556 21-798): as the sequence (P05556 21-798) above
Description: Another experiment was performed using α5β1 integrin expressing cells in a manner similar to the FimA II-His tag protein binding inhibitory experiment described above, to investigate the binding ratio of RGD peptide or fibronectin to SBA beads.

[7] = system: TNFRI (TNF-α Receptor Type I); assay: TNFRI phosphorylation by western blotting in test cells treated with P. gingivalis; assay type: cell-based; conditions: test cells with P. gingivalis carrying type II FimA fimbrial protein (10 μl), 30 μl beads, FIG. 8
Description: Test cells were seeded into a 96-well plate in an amount of 5×10^5 cells. The next day, each well was washed with DMEM, and then P. gingivalis carrying type II FimA fimbrial protein (10 μl) was added as a reagent. The numerical value in the parentheses indicates the final concentration in the medium containing the reagent.
SBA beads, RGD peptide−SBA beads, or fibronectin−SBA beads were allowed to coexist therewith in an amount of 30 μl, and the plate was shaken. After each plate was washed well with PBS, cells were dissolved in 1% NP-40, and subjected to western blotting using an anti-TNFRI antibody, anti-tyrosine phosphorylation antibody, and anti-actin antibody.

[8] = Ca9-22 cells treated with LPS 10 ng/ml
[9] = Ca9-22 cells treated with TNF-α 10 ng/ml
[10] = Ca9-22 cells with FimA II-GST 10 μg/ml
[11] = Ca9-22 cells with P. gingivalis carrying FimA type II fimbrial protein (5 μl)

Molecule	effect of coexisting monosaccharide on the RGD peptide−SBA binding inhibitory effect [1]	inhibition of binding of P. gingivalis carrying type II FimA fimbrial protein to gingival cells [2]	production of TGF-β (TGF-β; [8])	production of TGF-β (TGF-β; [9])	production of TGF-β (TGF-β; [10])	production of TGF-β (TGF-β; [11])	inhibition of the interaction between gingival cells and FimA II [3]	inhibition of binding of FimA type II fimbrial protein to α5β1 integrin expression cells [4]	inhibition of binding of type II FimA protein to α5β1 integrin expression cells [5]	binding inhibition depending on binding ratio of RGD peptide to SBA beads [6]	phosphorylated tyrosine of the activation receptor (TNFRI) [7]
CC(=O)N[C@H]1C(O)O[C@H](CO)[C@H](O)[C@@H]1O (stereo partly shown) [N-acetylgalactosamine]	did so										
SBA beads: conjugate of soybean lectin and NHS-activated Sepharose beads		slightly inhibited binding	production of TGF-β was observed	production of TGF-β was observed	production of TGF-β was detected	production of TGF-β was detected					
SBA: soybean lectin (soybean agglutinin), mucin-type sugar chain-binding lectin; tested bound to beads							more potently inhibits				
RGD peptide−SBA beads: beads in which SBA beads and RGD-peptide (SEQ ID NO: 3, RGDSPASSKP) are bound		inhibited; also recorded: remarkably high binding inhibitory effect	production of TGF-β was observed	production of TGF-β was observed	production of TGF-β was inhibited	production of TGF-β was inhibited		significantly inhibited	significantly inhibited; also recorded: higher than that of fibronectin−SBA beads	inhibited binding most effectively	not detected
